Values joined by “and” are separate entries in the source; they are usually repeats but may differ in a detail not shown here. Equal values may be shown once. Read-outs that look alike come from different tables or passages of the source.
Experiments:
T. cruzi = T. cruzi growth inhibition; assay type: cell-based, Trypanosoma cruzi; settings: read-out: (E) T. cruzi EC50
T. brucei = T. brucei growth inhibition; assay type: cell-based, Trypanosoma brucei; settings: Trypanosoma brucei; read-out: (D) T. brucei EC50
MetRS (C. parvum) = MetRS (C. parvum) (Cryptosporidium parvum, UniProt Q5CVN0); assay: MetRS (C. parvum) enzyme inhibition; assay type: biochemical; settings: read-out: (C) MetRS (C. parvum) IC50
MetRS (T. brucei) = molecular target: T1, MetRS (T. brucei) (Trypanosoma brucei brucei, UniProt Q38C91); assay: MetRS (T. brucei) enzyme inhibition; assay type: biochemical
T1 sequence (Q38C91 1-773): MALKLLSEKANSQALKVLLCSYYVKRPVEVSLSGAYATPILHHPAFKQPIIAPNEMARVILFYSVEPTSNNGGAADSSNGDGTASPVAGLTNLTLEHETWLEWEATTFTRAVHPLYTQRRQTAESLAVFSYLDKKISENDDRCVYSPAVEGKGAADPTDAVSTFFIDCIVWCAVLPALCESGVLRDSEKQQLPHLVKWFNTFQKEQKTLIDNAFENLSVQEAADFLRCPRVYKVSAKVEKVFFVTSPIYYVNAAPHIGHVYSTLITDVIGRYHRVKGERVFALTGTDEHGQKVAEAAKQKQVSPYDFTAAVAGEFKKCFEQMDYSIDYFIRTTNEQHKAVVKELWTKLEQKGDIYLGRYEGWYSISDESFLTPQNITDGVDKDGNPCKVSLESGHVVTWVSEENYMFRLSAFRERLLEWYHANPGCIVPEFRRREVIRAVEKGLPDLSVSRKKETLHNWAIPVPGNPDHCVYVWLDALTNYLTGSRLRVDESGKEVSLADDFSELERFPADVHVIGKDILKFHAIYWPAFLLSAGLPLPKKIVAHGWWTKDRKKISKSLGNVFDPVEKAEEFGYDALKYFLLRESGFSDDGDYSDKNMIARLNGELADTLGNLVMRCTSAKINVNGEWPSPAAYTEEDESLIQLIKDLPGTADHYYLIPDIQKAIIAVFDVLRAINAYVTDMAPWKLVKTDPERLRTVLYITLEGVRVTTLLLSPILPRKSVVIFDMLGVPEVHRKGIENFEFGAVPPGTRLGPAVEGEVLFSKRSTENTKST

Sequence of MetRS (C. parvum) (Q5CVN0 entry or part of it): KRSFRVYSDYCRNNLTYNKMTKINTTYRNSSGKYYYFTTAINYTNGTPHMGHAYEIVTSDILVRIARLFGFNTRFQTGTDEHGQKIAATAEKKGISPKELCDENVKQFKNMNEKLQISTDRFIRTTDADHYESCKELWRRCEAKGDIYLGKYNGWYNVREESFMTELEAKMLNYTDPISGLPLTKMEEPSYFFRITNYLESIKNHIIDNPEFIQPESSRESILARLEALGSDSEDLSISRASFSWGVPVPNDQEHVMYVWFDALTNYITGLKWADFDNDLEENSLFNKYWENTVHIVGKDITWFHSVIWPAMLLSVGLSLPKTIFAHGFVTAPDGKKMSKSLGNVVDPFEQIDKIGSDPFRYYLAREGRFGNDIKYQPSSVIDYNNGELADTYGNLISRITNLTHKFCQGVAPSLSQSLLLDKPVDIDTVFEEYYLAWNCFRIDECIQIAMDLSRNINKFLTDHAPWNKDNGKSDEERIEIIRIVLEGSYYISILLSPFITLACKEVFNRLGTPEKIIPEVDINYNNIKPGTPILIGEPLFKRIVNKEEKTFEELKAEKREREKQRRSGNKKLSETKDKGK

SMILES | EC50 (T. cruzi; Trypanosoma cruzi) | EC50 (T. brucei) | IC50 (MetRS (C. parvum)) | IC50 (MetRS (T. brucei)) | EC50 (T. cruzi)
O=C(O)Cn1c(C(O)c2ccc(Cl)cc2Cl)cn(Cc2nc3ccc(Cl)nc3[nH]2)c1=O (stereo not drawn) [Compound 2218, 2-(3-((5-chloro-3H-imidazo[4,5-b]pyridin-2-yl)methyl)-5((2,4-dichlorophenyl)(hydroxy)methyl)-2-oxo-2,3-dihydro-1H-imidazol-1-yl)acetic acid] | > 5 µM | 0.718 µM | 0.0401 µM | < 0.04 µM | –
CCn1cc(-c2ccc(OC)cc2Cl)c2c1CCN(Cc1nc3nc(Cl)ccc3[nH]1)C2 [Compound 2177, 5-chlor0-2-((3-(2-chloro-4-methoxyphenyl)-1-ethyl-6,7-dihydro-1H-pyrrolo[3,2-c]pyridin-5(4H)-yl)methyl)-1H-imidazo[4,5-b]pyridine] | 0.409 µM | 0.0925 µM | < 0.04 µM | < 0.04 µM | –
CCn1c(Cc2ccc(Cl)cc2Cl)cn(Cc2nc3ccccc3[nH]2)c1=O [Compound 2068, 1-[(1H-1,3-benzodiazol-2-yl)methyl]-4-[(2,4-dichlorophenyl)methyl]-3-ethyl-2,3-dihydro-1H-imidazol-2-one] | 1 µM | 0.0402 µM | < 0.04 µM | < 0.04 µM | –
Fc1ccc2nc(Cn3cc(Cc4ccc(Cl)cc4Cl)[nH]c3=S)[nH]c2n1 [Compound 2056, 5-(2,4-dichlorobenzyl)-3-((5-fluoro-3H-imidazo[4,5-b]pyridin-2-yl)methyl)-1H-imidazole-2(3H)-thione] | 3.72 µM | 0.242 µM | 0.195 µM | < 0.04 µM | –
CC(=O)Nc1nc(Cc2ccc(Cl)cc2Cl)cn1Cc1nc2ccc(Cl)cc2[nH]1 [Compound 2193, N-{1-[(6-chloro-1H-1,3-benzodiazol-2-yl)methyl]-4-[(2,4-dichlorophenyl)methyl]-1H-imidazol-2-yl}acetamide] | – | 0.257 µM | 0.232 µM | < 0.04 µM | –
COc1ccc(-c2cnc(N)c3nc(Cc4nc5nc(Cl)ccc5[nH]4)cn23)c(Cl)c1 [Compound 2175, 2-({5-chloro-1H-imidazo[4,5-b]pyridin-2-yl}methyl)-5-(2-chloro-4-methoxyphenyl)imidazo[1,2-a]pyrazin-8-amine] | 0.681 µM | – | 0.0417 µM | 0.072 µM and < 0.04 µM | 0.638 µM
COc1ccc(-c2cccn3cc(Cc4nc5nc(F)ccc5[nH]4)nc23)c(Cl)c1 [Compound 2148, 8-(2-chloro-4-methoxyphenyl)-2-({5-fluoro-1H-imidazo[4,5-b]pyridin-2-yl}methyl)imidazo[1,2-a]pyridine] | – | > 2 µM | 0.993 µM | 0.06 µM | –
FC(F)(F)c1ccc(-c2cccc3nc(Cc4nc5nc(Cl)ccc5[nH]4)cn23)c(Cl)c1 [Compound 2126, 2-({5-chloro-1H-imidazo[4,5-b]pyridin-2-yl}methyl)-5-[2-chloro-4-(trifluoromethyl)phenyl]imidazo[1,2-a]pyridine] | – | 1.78 µM | > 1 µM | 0.04 µM | –
COc1ccc(-c2ccc(N)c3nc(Cc4nc5cc(Cl)ccc5[nH]4)cn23)c(Cl)c1 [Compound 2179, 2-[(6-chloro-1H-1,3-benzodiazol-2-yl)methyl]-5-(2-chloro-4-methoxyphenyl)imidazo[1,2-a]pyridin-8-amine] | – | 0.183 µM | 0.076 µM | < 0.04 µM | –
COc1ccc(-c2cccn3c(S(C)(=O)=O)c(Cc4nc5nc(Cl)ccc5[nH]4)nc23)c(Cl)c1 [Compound 2151, 2-({5-chloro-1H-imidazo[4,5-b]pyridin-2-yl}methyl)-8-(2-chloro-4-methoxyphenyl)-3-methanesulfonylimidazo[1,2-a]pyridine] | – | 0.364 µM | 0.614 µM | < 0.04 µM | –
CSc1ncc(Cc2ccc(Cl)cc2Cl)n1Cc1nc2nc(Cl)ccc2[nH]1 [Compound 2113, 1-({5-chloro-1H-imidazo[4,5-b]pyridin-2-yl}methyl)-5-[(2,4-dichlorophenyl)methyl]-2-(methylsulfanyl)-1H-imidazole] | – | 1.93 µM | > 1 µM | 2 µM | –
CCn1c(Cc2ccc(Cl)cc2Cl)cn(C(C)c2nc3nc(F)ccc3[nH]2)c1=O (stereo not drawn) [Compound 2143, 4-[(2,4-dichlorophenyl)methyl]-3-ethyl-1-(1-{5-fluoro-1H-imidazo[4,5-b]pyridin-2-yl}ethyl)-2,3-dihydro-1H-imidazol-2-one] | – | 0.806 µM | 0.0966 µM | < 0.04 µM | –
Cc1ccc(-c2cccc3nc(Cc4nc5nc(Cl)ccc5[nH]4)cn23)c(Cl)c1 [Compound 2165, 2-({5-chloro-1H-imidazo[4,5-b]pyridin-2-yl}methyl)-5-(2-chloro-4-methylphenyl)imidazo[1,2-a]pyridine] | – | > 0.2 µM | 0.326 µM | < 0.04 µM | –
COc1ccc(-c2cccn3cc(Cc4nc5nc(Cl)ccc5[nH]4)nc23)c(Cl)c1 [Compound 2149, 2-({5-chloro-1H-imidazo[4,5-b]pyridin-2-yl}methyl)-8-(2-chloro-4-methoxyphenyl)imidazo[1,2-a]pyridine] | – | > 2 µM | > 1 µM | 0.045 µM | –
COc1cc(Cl)c(-c2cccc3nc(Cc4nc5nc(F)ccc5[nH]4)cn23)cc1Cl [Compound 2133, 5-(2,5-dichloro-4-methoxyphenyl)-2-({5-fluoro-1H-imidazo[4,5-b]pyridin-2-yl}methyl)imidazo[1,2-a]pyridine] | – | 0.849 µM | 0.354 µM | < 0.04 µM | –
CCNC(=O)Nc1ccc(-c2ccc(OC)cc2Cl)n2cc(Cc3nc4ccc(Cl)cc4[nH]3)nc12 [Compound 2182, 1-{2-[(6-chloro-1H-1,3-benzodiazol-2-yl)methyl]-5-(2-chloro-4-methoxyphenyl)imidazo[1,2-a]pyridin-8-yl}-3-ethylurea] | 0.647 µM | 0.084 µM | 0.0421 µM | < 0.04 µM | –
CCn1c(Cc2ccc(Cl)cc2Cl)cn(CCc2nc3ccc(F)nc3[nH]2)c1=O [Compound 2121, 4-[(2,4-dichlorophenyl)methyl]-3-ethyl-1-(2-{5-fluoro-1H-imidazo[4,5-b]pyridin-2-yl}ethyl)-2,3-dihydro-1H-imidazol-2-one] | – | 1.34 µM | 0.476 µM | 0.041 µM | –
Clc1ccc(Cc2cn(Cc3nc4nc(Cl)ccc4[nH]3)c(SCc3ccccn3)n2)c(Cl)c1 [Compound 2157, 2-({[1-({5-chloro-1H-imidazo[4,5-b]pyridin-2-yl}methyl)-4-[(2,4-dichlorophenyl)methyl]-1H-imidazol-2-yl]sulfanyl}methyl)pyridine] | – | > 0.2 µM | 0.107 µM | < 0.04 µM | –
Fc1ccc2[nH]c(Cc3cn4c(-c5ccc(C(F)(F)F)cc5Cl)cccc4n3)nc2n1 [Compound 2127, 5-[2-chloro-4-(trifluoromethyl)phenyl]-2-({5-fluoro-1H-imidazo[4,5-b]pyridin-2-yl}methyl)imidazo[1,2-a]pyridine] | – | > 2 µM | > 1 µM | 0.063 µM | –
Clc1ccc(Cc2cn(Cc3nc4ccc(Cl)cc4[nH]3)c(Br)n2)c(Cl)c1 [Compound 2194, 2-({2-bromo-4-[(2,4-dichlorophenyl)methyl]-1H-imidazol-1-yl}methyl)-6-chloro-1H-1,3-benzodiazole] | – | > 2 µM | > 1 µM | > 10 µM | –

— patent US11584744B2 (UNIVERSITY OF WASHINGTON, priority 2017, dated 2023)
